Results from patent US20230312639A1, “GPER PROTEOLYTIC TARGETING CHIMERAS” (University of Iowa Research Foundation, priority 2020, published 2023).
Residues, ends and D or L forms follow the SMILES beside them. *: point of attachment. Cbz = O=C(OCc1ccccc1)*

What was measured:
[1] = molecular target: T1, recombinant HA-tagged GPER (Homo sapiens, UniProt Q99527); assay: HA immunoblot of lysates of HEK293 cells stably expressing HA-tagged GPER; type: cell-based; conditions: various concentrations, 16 hr
T1 construct: expressed in transfected cells
Protocol: FIG. 38. […] HEK293 cells stably expressing recombinant HA-tagged GPER were treated with various concentrations of CIMBA-PROTAC-001 or partial PROTAC for 16 hr and then lysed in detergent. Equivalent amounts of protein lysate were resolved in SDS-polyacrylamide gels and then electrotransferred onto PVDF […] membranes. Membranes were probed with rabbit HA antibodies, top. HA- antibodies were stripped from the membrane at low pH and the membrane was then probed with […] transferrin receptor (TFNR) antibodies as a specificity and loading control.

[2] = tested on: ERs (ERa and ERb); assay: Fluorescence polarization competitive binding with E2-FITC in cytosolic fractions from MCF-7 cells; set-up: species or system human
Protocol: ER binding was measured using cytosolic fractions prepared from MCF-7 cells by fluorescence polarization. MCF-7 (10^6 cells) were detached in EDTA, cell homogenates were prepared using a Dounce homogenizer and subcellular fractions were isolated by differential centrifugation as previously described (Filardo et al, 2002). The protein concentration of each fraction was determined by bichinchoninic acid (BCA) assay (Pierce ™ BCA protein assay kit, Thermo Fisher). For saturation binding assay of the probe, different concentrations of cytosolic fraction were diluted in assay buffer (10 mM Tris-HCl, pH 7.4; 50 mM KCl, 10% glycerol, 0.1 mM dithiothreitol (DTT), 1 ug/mL BGG, 10 nM protease inhibitor cocktail (Roche) to a final volume of 200 uL containing 10 nM Ez-FITC. The mixture was incubated at ambient temperature for 1 hour and interaction of the probe with cytosolic protein was determined by fluorescence polarization (FP). For competitive binding assay, an aliquot of cytosolic fraction and E2-FITC (10 nM final concentration) was mixed and incubated at 4° C. for 1 hour. Then different concentrations of drugs and controls were added to the mixture. The mixture was incubated for an additional hour and then subjected to FP. All samples were measured in triplicate. Negative controls (only cytosolic fraction or only E2-FITC) and positive control (E2-FITC and cytosolic fraction at 100% binding without treatment) were included. Relative binding affinities were expressed as the percentage of FP recorded from treated wells compared to the positive control. FP values in millipolarization units (mP) were measured at ex/em wavelength of 485 nm/530 nm respectively using the Spectra Max plus 384 Microplate Spectrophotometer (Molecular Devices, Sunnyvale, CA) in 96-well, black, flat-bottom microplates (Greiner Bio-One North America, Inc., Monroe, NC). Kd values of the probe were determined by nonlinear regression fitting of the saturation curves, while IC50 values of treatment were determined by nonlinear regression fitting of the competition curves.
In contrast to GPER, ERa and ERb are intracellular receptors that are concentrated in the cytoplasm and in the nucleus. […] A saturation analysis was performed using 10 nM E2-FITC and increasing concentrations of cytosolic protein (FIG. 25D).

[3] = molecular target: T2, GPER (Homo sapiens, UniProt Q99527); conditions: Filardo et al., 2007; cited from earlier work
[4] = molecular target: T2, GPER; conditions: Filardo et al., 2007; cited from earlier work; remark: listed apart in the source
[5] = molecular target: HiBiT-GPER (Homo sapiens, UniProt Q99527); assay: Nano-BiT binary luminescence complementation, transfected HEK-293 cells, total receptor; type: cell-based; conditions: for effect on UI-EP001 / UI-EP002 degradation of HiBiT-GPER: 100 µM UI-EP001 or UI-EP002, 1 hour, MG132 10 µM, chloroquine 100 µM, E2 or aldosterone 100 nM-100 µM
Protocol: FIG. 26. […] HEK-293 cells (ERα^-, GPER^-) were transiently transfected with 50 ng HiBiT-GPER or HiBiT-ER plus pcDNA3.1(+) zeo carrier plasmid. […] (C) Histogram depicting total HiBiT-GPER and HiBiT-ER following a 1-hour treatment at […] drug or control. […] Results shown represent the mean ± S.E. of three independent experiments.
(§1) FIG. 28. […] Total receptor was then measured by binary luminescence complementation in detergent-permeabilized cells. […] Total receptor was then quantified by binary luminescence complementation. Representative luminescence data and mean values and SDs derived from three independent experiments are shown.
(§2) Transient transfections and binary Nano-Bit ™ luminescence assays. Total HiBiT-tagged GPER or ER estrogen receptors were detected in detergent-permeabilized cells by binary luminescence complementation with recombinant LgBit and substrate using the Nano-Glo HiBiT Extracellular Detection system kit (Promega Corporation, Madison, Wl). In brief, HEK293 cells (0.75 × 10^6) were seeded in 35 mm tissue culture dishes and 24 hours later were transiently transfected with 50 ng of HiBiT-GPER or HiBiT-ERa and 950 ng of pcDNA3.1(+) zeo carrier plasmid using Lipofectamine 2000 (Invitrogen, Carlsbad, CA). The next day transfected cells were harvested by trypsinization and seeded at a density of 10^4 cells/well in 96-well poly-L-lysine-coated Greiner white-bottomed microplates. On the following day, cell culture media was aspirated and replaced with 100 µL of serum-free PRF-DF12 containing E2-PROTAC, partial-PROTAC, or vehicle at various concentrations and for indicated time intervals at 37° C. […] Following treatment, total HiBiT-tagged receptor was measured in cells which were permeabilized in 0.05% Triton X-100 using HiBiT complementation reagent consisting of LgBiT protein and Nano-Gio® HiBiT substrate. Luminescence was measured using the Infinite 200 PRO multimode microplate reader from Tecan (Raleigh, NC) and reported as Relative Luminescent Units (RLU). All samples were measured in triplicate and expressed as the mean value plus or minus standard deviation.

[6] = molecular target: T3, HiBiT-ERα (Homo sapiens, UniProt P03372); assay: as above; type: cell-based; conditions: for effect on UI-EP001 / UI-EP002 degradation of HiBiT-ERα: 100 µM UI-EP001 or UI-EP002, 1 hour, MG132 10 µM, chloroquine 100 µM, E2 or aldosterone 100 nM-100 µM
T3 sequence (P03372 1-595): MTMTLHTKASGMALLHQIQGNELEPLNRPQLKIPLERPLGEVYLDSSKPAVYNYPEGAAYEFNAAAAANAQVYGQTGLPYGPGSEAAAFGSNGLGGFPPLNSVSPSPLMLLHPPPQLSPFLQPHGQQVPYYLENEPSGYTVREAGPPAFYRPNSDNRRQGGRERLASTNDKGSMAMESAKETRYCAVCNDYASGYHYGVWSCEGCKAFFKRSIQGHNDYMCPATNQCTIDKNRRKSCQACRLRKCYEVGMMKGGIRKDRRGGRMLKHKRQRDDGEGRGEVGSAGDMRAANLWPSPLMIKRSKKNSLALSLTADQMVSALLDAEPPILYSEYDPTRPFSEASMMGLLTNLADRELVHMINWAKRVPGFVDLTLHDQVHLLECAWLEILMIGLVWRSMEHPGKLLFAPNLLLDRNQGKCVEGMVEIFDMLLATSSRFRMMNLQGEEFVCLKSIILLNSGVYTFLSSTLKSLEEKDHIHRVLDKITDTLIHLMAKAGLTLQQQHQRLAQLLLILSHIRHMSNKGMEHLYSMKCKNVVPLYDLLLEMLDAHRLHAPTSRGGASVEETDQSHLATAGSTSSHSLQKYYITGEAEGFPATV
Protocol: FIG. 26. […] HEK-293 cells (ERα^-, GPER^-) were transiently transfected with 50 ng HiBiT-GPER or HiBiT-ER plus pcDNA3.1(+) zeo carrier plasmid. […] Results shown represent the mean ± S.E. of three independent experiments.
as §1, §2

[7] = tested on: HCC1806 cells; assay: Cell cycle analysis, propidium iodide, flow cytometry; type: cell-based, human; conditions: HCC1806, 10 µM, 24 hours
Source text: (§3) FIG. 30. E2-PROTACs promote estrogen receptor-dependent G2/M arrest. E2-PROTAC induced G2/M arrest in human breast cancer cell lines expressing membrane and/or intracellular estrogen receptors. […] Fixed cells were permeabilized and dyed with propidium iodide (PI). Cell cycle data were acquired on a flow cytometer and analyzed using Flow-Jo software. Data are expressed as mean ± SEM (n=3). The percentage of cells in each phase were plotted using Prism 8.0.
(§4) Cell cycle analysis. […] Following treatment, cells were harvested by trypsinization and washed twice in ice-cold PBS. Cells were then fixed in 70% ethanol at 4° C. for 30 minutes. Fixed cells were pelleted by centrifugation at 230 g for 5 minutes and the cell pellet was incubated in Krishan’s solution (3.8 mM sodium citrate (Fisher Scientific), 0.014 mM propidium iodide (AnaSpec, Fermont, Ca), 1% NP-40 (Sigma) and 2.0 mg/mL RNase A (Fisher Scientific)) for 30 minutes at 37° C. Cells were then centrifuged and washed in PBS prior to analysis using a FacScallibur flow cytometer. The data from flow cytometry were subjected to further analysis by CellQuest software version 3.3. DNA histograms generated indicate the fractions of the cell population in the sub-G1, G0-G1, S, or G2/M phase of the cell cycle.
(§5) To investigate the biological effect associated with decreased cell viability, cell cycle analysis was performed on the same four cell lines using propidium iodide staining and measured by flow cytometry 24 hours after treatment of cells with 10 µM E2-PROTAC or partial PROTAC (FIG. 30).

[8] = tested on: MCF-7 cells; assay: as above; type: cell-based, human; conditions: MCF-7, 10 µM, 24 hours
Source text: as §3, §4, §5

[9] = tested on: SKBR3 cells; assay: as above; type: cell-based, human; conditions: SKBR3, 10 µM, 24 hours
Source text: as §3, §4, §5

[10] = molecular target: T4, ERα (Homo sapiens, UniProt P03372); assay: Immunostaining of endogenous receptors in MCF-7 cells; conditions: MCF-7, 1 hour
T4 sequence (P03372 1-595): T3 sequence (P03372 1-595)

[11] = molecular target: ERβ (Homo sapiens, UniProt Q92731); assay: as above; conditions: MCF-7, 1 hour
[12] = molecular target: T2, GPER; assay: as above; conditions: MCF-7, 1 hour
[13] = molecular target: T2, GPER; assay: Competitive binding assay in intact SKBR3 cells with E2-FITC as fluoro-tracer (flow cytometry); set-up: endogenous in cells; host or cells: SKBR3 human breast carcinoma cells (ATCC); conditions: concentrations as high as 10 mM
[14] = increasing doses, 1 hour, partial PROTAC 100 µM

HiBiT-GPER, sequence (Q99527 whole entry): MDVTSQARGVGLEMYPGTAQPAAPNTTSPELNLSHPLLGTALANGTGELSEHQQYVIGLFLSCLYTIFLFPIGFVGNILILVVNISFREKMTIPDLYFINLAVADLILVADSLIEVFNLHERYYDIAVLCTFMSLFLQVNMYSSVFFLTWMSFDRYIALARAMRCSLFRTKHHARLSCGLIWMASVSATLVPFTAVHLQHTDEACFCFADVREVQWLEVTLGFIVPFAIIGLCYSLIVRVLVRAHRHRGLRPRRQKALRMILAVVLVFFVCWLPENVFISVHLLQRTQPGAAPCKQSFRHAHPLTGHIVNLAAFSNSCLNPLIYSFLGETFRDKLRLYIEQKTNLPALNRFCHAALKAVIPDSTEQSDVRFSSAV
T2 sequence (Q99527 whole entry): as above
T1 sequence (Q99527 whole entry): as above
ERβ, sequence (Q92731 whole entry): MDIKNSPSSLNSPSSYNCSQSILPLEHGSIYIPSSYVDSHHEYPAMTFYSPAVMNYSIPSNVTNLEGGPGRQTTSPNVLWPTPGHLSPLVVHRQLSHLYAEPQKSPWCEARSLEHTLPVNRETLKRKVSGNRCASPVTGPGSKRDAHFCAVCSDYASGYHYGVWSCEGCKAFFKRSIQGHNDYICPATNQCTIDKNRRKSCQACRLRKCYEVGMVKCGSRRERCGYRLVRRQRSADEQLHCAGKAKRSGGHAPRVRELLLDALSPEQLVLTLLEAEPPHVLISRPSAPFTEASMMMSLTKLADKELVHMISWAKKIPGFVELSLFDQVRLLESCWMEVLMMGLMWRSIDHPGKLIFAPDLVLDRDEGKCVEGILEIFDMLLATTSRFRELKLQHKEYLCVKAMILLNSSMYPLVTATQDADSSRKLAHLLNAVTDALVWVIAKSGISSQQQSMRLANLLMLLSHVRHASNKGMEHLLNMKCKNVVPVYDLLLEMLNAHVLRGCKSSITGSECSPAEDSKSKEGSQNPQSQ

Question: Which “degradation of recombinant GPER” value [1] does the source give for COc1ccc(CNc2ccc(C(C)C)cc2N2CCN(C(=O)COCCOCCOCCOCC(=O)NC(C(=O)N3CC(O)CC3C(=O)NCc3ccc(-c4scnc4C)cc3)C(C)(C)C)CC2)cc1 (stereo not drawn) [CIMBA-PROTAC-001] here?
Answer: degrades recombinant GPER

Question: For C[C@]12CC[C@@H]3c4ccc(O)cc4C[C@@H](CCCCCCCCC[S+]([O-])CCCC(F)(F)C(F)(F)F)[C@H]3[C@@H]1CC[C@@H]2O (stereo partly drawn) [Fulvestrant], which relative binding activity [3] is on record?
Answer: 5%

Question: And the “concentration at which it functions as a GPER agonist” value [4]?
Answer: 500 nM

Question: Which “effect on UI-EP001 / UI-EP002 degradation of HiBiT-GPER” value [5] does the source give for CC(C)C[C@@H](C=O)NC(=O)[C@H](CC(C)C)NC(=O)[C@H](CC(C)C)NC(=O)OCc1ccccc1 [MG132] (Cbz-Leu-Leu-Leu-aldehyde) here?
Answer: reversed

Question: And the “effect on UI-EP001 / UI-EP002 degradation of HiBiT-ERα” value [6]?
Answer: reversed

Question: What does the source list for Cc1ncsc1-c1ccc(CNC(=O)C2CC(O)CN2C(=O)C(NC(=O)COCCOCCOCCOCC(=O)O)C(C)(C)C)cc1 (stereo not drawn) [Partial PROTAC, reference compound]?
Answer: receptor present after treatment ([5]; 100 µM, 8 hrs, recombinant receptor, GPER or ER not specified): 83%; change of HiBiT-GPER [5, 14]: did not show any significant decrease; change of HiBiT-ERα [6, 14]: did not show any significant decrease; cell cycle distribution [7]: much less significant shift; cell cycle distribution [8]: much less significant shift; cell cycle distribution [9]: much less significant shift; nuclear ERα expression [10]: did not impact; nuclear ERβ expression [11]: did not impact; intracellular GPER expression [12]: did not impact; competition for E2-FITC binding [13]: unable to compete for E2-FITC binding

Question: What does the source list for C[C@]12CCC(=O)C=C1CC[C@@H]1[C@@H]2[C@@H](O)C[C@]2(C=O)[C@@H](C(=O)CO)CC[C@@H]12 [aldosterone]?
Answer: effect on UI-EP001 / UI-EP002 degradation of HiBiT-GPER [5]: not aldosterone was capable of blocking; effect on UI-EP001 / UI-EP002 degradation of HiBiT-ERα [6]: not aldosterone was capable of blocking

Question: With CCN(CC)CCCC(C)Nc1ccnc2cc(Cl)ccc12 (stereo not drawn) [chloroquine, chloroquine diphosphate] as the molecule, how does the “effect on UI-EP001 / UI-EP002 degradation of HiBiT-GPER” value [5] read?
Answer: had no such effect
